Source: article PMC4492758 (Pharmacology Research & Perspectives, 2015)
Several values for one entry are separate records, joined by “and”; a condition that tells them apart may be missing. Equal values may be shown once. Entries after “also recorded” stand apart in the source; their conditions may differ. Where a name gives a salt, the structure may show the parent alone. Read-outs that look alike come from different tables or passages of the source. Marks after values point to notes of the source that are not given here.

Experiments:
human 5-HT1A receptor = human 5-HT1A receptor (Homo sapiens, UniProt P08908); experiment: biochemical; conditions: read-out: I.A. (intrinsic activity), GTPγS binding
[1] = biological target: rat serotonin transporter (Rattus norvegicus, UniProt P31652); experiment: Rat SERT binding, [3H]citalopram, rat cerebral cortex membranes
Human adrenergic α1A = Human adrenergic α1A (Homo sapiens, UniProt P35348); experiment: Off-target radioligand binding assay
Human adrenergic α1B = Human adrenergic α1B (Homo sapiens, UniProt P35368); experiment: Off-target radioligand binding assay; conditions: read-out: Percentage inhibition at 1 μmol/L
Human adrenergic α2A = Human adrenergic α2A (Homo sapiens, UniProt P08913); experiment: Off-target radioligand binding assay; conditions: read-out: Percentage inhibition at 1 μmol/L
Human adrenergic α2B = Human adrenergic α2B (Homo sapiens, UniProt P18089); experiment: Off-target radioligand binding assay; conditions: read-out: Percentage inhibition at 1 μmol/L
Human adrenergic α2C = Human adrenergic α2C (Homo sapiens, UniProt P18825); experiment: Off-target radioligand binding assay; conditions: read-out: Percentage inhibition at 1 μmol/L
Human adrenergic β1 = Human adrenergic β1 (Homo sapiens, UniProt P08588); experiment: Off-target radioligand binding assay; conditions: read-out: Percentage inhibition at 1 μmol/L
Human adrenergic β2 = Human adrenergic β2 (Homo sapiens, UniProt P07550); experiment: Off-target radioligand binding assay; conditions: read-out: Percentage inhibition at 1 μmol/L
Human adrenergic β3 = Human adrenergic β3 (Homo sapiens, UniProt P13945); experiment: Off-target radioligand binding assay; conditions: read-out: Percentage inhibition at 1 μmol/L
Human dopamine D1 = Human dopamine D1 (Homo sapiens, UniProt P21728); experiment: Off-target radioligand binding assay; conditions: read-out: Percentage inhibition at 1 μmol/L
Human dopamine D2L = Human dopamine D2L (Homo sapiens, UniProt P14416); experiment: Off-target radioligand binding assay; conditions: read-out: Percentage inhibition at 1 μmol/L
Human dopamine D3 = Human dopamine D3 (Homo sapiens, UniProt P35462); experiment: Off-target radioligand binding assay
Rat GABAA = experiment: Off-target radioligand binding assay; conditions: [3H] Flunitrazepam 0.88 nmol/L
Human histamine H1 = Human histamine H1 (Homo sapiens, UniProt P35367); experiment: Off-target radioligand binding assay
Human histamine H2 = Human histamine H2 (Homo sapiens, UniProt P25021); experiment: Off-target radioligand binding assay; conditions: read-out: Percentage inhibition at 1 μmol/L
Human musucarinic M1 = Human musucarinic M1 (Homo sapiens, UniProt P11229); experiment: Off-target radioligand binding assay; conditions: read-out: Percentage inhibition at 1 μmol/L
Human musucarinic M2 = Human musucarinic M2 (Homo sapiens, UniProt P08172); experiment: Off-target radioligand binding assay; conditions: read-out: Percentage inhibition at 1 μmol/L
Human opiate δ = Human opiate δ (Homo sapiens, UniProt P41143); experiment: Off-target radioligand binding assay; conditions: read-out: Percentage inhibition at 1 μmol/L
Human opiate κ = Human opiate κ (Homo sapiens, UniProt P41145); experiment: Off-target radioligand binding assay; conditions: read-out: Percentage inhibition at 1 μmol/L
Human opiate μ = Human opiate μ (Homo sapiens, UniProt P35372); experiment: Off-target radioligand binding assay; conditions: read-out: Percentage inhibition at 1 μmol/L
[2] = biological target: guinea pig serotonin 5-HT4 (Cavia porcellus, UniProt O70528); experiment: Off-target radioligand binding assay; conditions: read-out: Percentage inhibition at 1 μmol/L
Human serotonin 5-HT1B = Human serotonin 5-HT1B (Homo sapiens, UniProt P28222); experiment: Off-target radioligand binding assay; conditions: read-out: Percentage inhibition at 1 μmol/L
Human serotonin 5-HT2A = Human serotonin 5-HT2A (Homo sapiens, UniProt P28223); experiment: Off-target radioligand binding assay; conditions: read-out: Percentage inhibition at 1 μmol/L
Human serotonin 5-HT2B = Human serotonin 5-HT2B (Homo sapiens, UniProt P41595); experiment: Off-target radioligand binding assay
Human serotonin 5-HT2C = Human serotonin 5-HT2C (Homo sapiens, UniProt P28335); experiment: Off-target radioligand binding assay; conditions: read-out: Percentage inhibition at 1 μmol/L
Human serotonin 5-HT3 = Human serotonin 5-HT3 (Homo sapiens, UniProt P46098); experiment: Off-target radioligand binding assay; conditions: read-out: Percentage inhibition at 1 μmol/L
Human serotonin 5-HT5A = Human serotonin 5-HT5A (Homo sapiens, UniProt P47898); experiment: Off-target radioligand binding assay; conditions: read-out: Percentage inhibition at 1 μmol/L
Human serotonin 5-HT6 = Human serotonin 5-HT6 (Homo sapiens, UniProt P50406); experiment: Off-target radioligand binding assay; conditions: read-out: Percentage inhibition at 1 μmol/L
Human serotonin 5-HT7 = Human serotonin 5-HT7 (Homo sapiens, UniProt P34969); experiment: Off-target radioligand binding assay
[3] = biological target: pig catechol-O-methyltransferase (Sus scrofa, UniProt Q99028); type: biochemical; conditions: read-out: percent inhibition
[4] = biological target: human monoamine oxidase-A (Homo sapiens, UniProt P21397); experiment: Off-target enzyme assay, 14C-labeled substrate; type: biochemical; conditions: read-out: percent inhibition
[5] = biological target: human monoamine oxidase -B (Homo sapiens, UniProt P27338); experiment: Off-target enzyme assay, 14C-labeled substrate; type: biochemical; conditions: read-out: percent inhibition
[6] = Pharmacokinetics of DSP-1053 in male rats; type: in vivo; conditions: Crl:CD(SD), rat, plasma
[7] = test system: extracellular 5-HT levels in the rat frontal cortex; experiment: Rat microdialysis, extracellular 5-HT; type: in vivo; conditions: for maximum increase of 5-HT extracellular levels, % of baseline value: 100 min after administration, mean ± SEM
[8] = test system: dopamine extracellular levels in the rat frontal cortex; experiment: Rat microdialysis, extracellular dopamine; type: in vivo; conditions: any dose (1, 3, 10 mg kg^−1 p.o.)
rats [9] = experiment: Rat forced swimming test; type: in vivo; conditions: vs vehicle
[10] = test system: sham-operated and olfactory bulbectomized rats; experiment: Olfactory bulbectomy model, emotional scoring; type: in vivo, rat
[11] = test system: sham-operated and olfactory bulbectomized rats; experiment: Olfactory bulbectomy model, open-field test; type: in vivo, rat
Suncus murinus [12] = experiment: Evaluation of emesis in Suncus murinus, experiment 1; type: in vivo; conditions: for Number of animals vomited/tested: single dose, 60 min observation; for Total emetic episode: 1 h observation, animals that vomited
Suncus murinus [13] = conditions: 60 mg kg^−1 po, 19 animals per group
rats [14] = experiment: Conditioned taste aversion test in rats; conditions: 100 mg kg^−1; Day 4, 24 h after administration, vs vehicle
Suncus murinus [15] = conditions: ref Mine et al. [2013], cited from earlier work; for Number of animals vomited/tested: single dose
[16] = read-out: Percentage inhibition at 1 μmol/L
[17] = olfactory bulbectomized animals, 0.3, 1 and 3 mg/kg, 1- and 2-week administration
[18] = sham-operated animals, 0.3, 1 and 3 mg/kg, 1- and 2-week administration
[19] = 1-week administration, vs vehicle
[20] = sham-operated animals, 2-week administration

Chain of Human dopamine D3 (P35462 whole entry): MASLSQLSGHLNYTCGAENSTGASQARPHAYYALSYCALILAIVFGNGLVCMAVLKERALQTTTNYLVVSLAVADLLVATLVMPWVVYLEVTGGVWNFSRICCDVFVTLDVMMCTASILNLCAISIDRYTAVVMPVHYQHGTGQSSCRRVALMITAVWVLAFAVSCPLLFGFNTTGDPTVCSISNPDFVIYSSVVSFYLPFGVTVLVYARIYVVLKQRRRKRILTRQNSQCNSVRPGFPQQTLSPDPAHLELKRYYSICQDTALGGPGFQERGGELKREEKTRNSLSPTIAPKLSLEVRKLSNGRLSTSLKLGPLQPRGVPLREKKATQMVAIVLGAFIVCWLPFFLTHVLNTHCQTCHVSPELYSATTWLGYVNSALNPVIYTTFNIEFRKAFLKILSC
Chain of Human serotonin 5-HT7 (P34969 whole entry): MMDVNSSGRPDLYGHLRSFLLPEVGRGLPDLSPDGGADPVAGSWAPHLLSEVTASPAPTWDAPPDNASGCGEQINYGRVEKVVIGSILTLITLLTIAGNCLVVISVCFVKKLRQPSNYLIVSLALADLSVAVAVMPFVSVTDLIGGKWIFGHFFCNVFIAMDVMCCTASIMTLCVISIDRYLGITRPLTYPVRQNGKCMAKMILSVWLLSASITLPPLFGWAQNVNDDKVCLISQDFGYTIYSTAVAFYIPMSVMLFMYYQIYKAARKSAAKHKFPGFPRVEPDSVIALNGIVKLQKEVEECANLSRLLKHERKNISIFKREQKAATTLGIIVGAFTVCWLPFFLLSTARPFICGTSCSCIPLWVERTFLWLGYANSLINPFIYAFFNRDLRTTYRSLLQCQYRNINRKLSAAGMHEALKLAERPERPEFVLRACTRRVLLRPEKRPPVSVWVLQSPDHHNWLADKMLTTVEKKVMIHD
Chain of Human histamine H1 (P35367 whole entry): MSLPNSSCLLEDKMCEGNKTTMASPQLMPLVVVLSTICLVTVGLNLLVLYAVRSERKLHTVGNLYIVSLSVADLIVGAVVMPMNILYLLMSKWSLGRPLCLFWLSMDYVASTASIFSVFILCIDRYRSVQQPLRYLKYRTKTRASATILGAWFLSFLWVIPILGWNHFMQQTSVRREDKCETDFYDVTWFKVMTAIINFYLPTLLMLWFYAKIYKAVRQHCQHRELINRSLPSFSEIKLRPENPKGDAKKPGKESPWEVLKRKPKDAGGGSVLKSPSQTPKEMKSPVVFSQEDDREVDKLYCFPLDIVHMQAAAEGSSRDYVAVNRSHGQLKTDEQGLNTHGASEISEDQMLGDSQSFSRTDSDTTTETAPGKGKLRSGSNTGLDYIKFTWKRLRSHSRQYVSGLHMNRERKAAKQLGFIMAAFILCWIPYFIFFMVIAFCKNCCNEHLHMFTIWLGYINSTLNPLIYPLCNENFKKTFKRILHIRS
Chain of Human adrenergic α1A (P35348 whole entry): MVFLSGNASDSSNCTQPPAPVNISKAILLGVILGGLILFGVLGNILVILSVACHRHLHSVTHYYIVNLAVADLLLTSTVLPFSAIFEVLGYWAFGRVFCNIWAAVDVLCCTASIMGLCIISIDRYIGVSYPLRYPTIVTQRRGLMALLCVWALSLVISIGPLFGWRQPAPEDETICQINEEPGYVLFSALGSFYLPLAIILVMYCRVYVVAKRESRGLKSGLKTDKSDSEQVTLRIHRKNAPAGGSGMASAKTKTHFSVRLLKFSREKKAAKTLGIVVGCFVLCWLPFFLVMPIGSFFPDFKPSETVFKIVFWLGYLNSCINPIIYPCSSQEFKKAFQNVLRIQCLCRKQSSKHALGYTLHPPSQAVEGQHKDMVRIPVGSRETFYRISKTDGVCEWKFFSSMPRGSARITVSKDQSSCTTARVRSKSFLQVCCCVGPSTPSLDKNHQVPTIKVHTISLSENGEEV
Chain of Human serotonin 5-HT2B (P41595 whole entry): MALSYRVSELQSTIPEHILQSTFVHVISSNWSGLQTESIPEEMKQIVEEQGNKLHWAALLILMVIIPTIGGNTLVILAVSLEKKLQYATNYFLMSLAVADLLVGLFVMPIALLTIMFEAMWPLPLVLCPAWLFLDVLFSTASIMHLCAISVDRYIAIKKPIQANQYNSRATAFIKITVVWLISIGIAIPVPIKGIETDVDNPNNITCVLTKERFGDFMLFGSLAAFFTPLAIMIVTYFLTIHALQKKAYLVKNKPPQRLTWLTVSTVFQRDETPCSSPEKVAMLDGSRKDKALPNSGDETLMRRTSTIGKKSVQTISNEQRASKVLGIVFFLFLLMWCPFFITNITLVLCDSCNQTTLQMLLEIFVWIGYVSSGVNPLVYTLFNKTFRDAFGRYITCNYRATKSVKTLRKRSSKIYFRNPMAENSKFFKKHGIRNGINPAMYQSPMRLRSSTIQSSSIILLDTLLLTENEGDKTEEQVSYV
Chain of Human dopamine D1 (P21728 whole entry): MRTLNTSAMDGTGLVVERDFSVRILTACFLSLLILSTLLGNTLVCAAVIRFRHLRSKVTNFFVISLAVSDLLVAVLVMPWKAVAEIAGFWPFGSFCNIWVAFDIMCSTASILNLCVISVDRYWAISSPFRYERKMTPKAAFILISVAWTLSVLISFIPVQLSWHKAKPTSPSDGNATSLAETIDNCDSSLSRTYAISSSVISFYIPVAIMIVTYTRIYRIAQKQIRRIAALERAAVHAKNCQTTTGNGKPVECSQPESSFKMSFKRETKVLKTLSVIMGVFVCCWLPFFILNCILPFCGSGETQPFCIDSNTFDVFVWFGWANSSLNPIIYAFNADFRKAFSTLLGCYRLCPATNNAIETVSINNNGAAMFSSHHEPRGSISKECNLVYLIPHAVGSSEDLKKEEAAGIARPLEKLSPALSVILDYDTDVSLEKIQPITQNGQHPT
Chain of Human histamine H2 (P25021 whole entry): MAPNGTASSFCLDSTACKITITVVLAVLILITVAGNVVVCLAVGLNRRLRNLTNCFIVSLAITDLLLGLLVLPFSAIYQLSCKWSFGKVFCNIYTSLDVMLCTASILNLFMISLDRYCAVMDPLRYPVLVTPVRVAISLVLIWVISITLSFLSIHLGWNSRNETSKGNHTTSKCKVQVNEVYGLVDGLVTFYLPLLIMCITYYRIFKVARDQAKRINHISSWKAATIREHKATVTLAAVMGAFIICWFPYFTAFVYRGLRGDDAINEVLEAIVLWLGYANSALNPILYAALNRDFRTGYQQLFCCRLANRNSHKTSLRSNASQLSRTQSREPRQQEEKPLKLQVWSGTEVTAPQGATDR
Chain of Human adrenergic α1B (P35368 whole entry): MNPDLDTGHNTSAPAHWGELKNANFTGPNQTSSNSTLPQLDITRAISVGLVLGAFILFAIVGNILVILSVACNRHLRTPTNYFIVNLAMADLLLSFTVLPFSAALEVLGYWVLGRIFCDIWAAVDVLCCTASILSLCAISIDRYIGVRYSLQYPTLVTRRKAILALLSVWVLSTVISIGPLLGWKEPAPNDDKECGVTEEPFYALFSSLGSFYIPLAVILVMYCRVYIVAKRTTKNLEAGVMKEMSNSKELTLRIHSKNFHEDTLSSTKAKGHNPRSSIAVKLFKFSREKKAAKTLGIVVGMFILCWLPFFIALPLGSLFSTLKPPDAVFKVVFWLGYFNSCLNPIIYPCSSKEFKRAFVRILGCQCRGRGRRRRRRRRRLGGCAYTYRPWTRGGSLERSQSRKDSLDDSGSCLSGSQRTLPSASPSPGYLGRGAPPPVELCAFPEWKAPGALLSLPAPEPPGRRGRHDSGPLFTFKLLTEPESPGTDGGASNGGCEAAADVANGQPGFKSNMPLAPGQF
Chain of Human adrenergic α2C (P18825 whole entry): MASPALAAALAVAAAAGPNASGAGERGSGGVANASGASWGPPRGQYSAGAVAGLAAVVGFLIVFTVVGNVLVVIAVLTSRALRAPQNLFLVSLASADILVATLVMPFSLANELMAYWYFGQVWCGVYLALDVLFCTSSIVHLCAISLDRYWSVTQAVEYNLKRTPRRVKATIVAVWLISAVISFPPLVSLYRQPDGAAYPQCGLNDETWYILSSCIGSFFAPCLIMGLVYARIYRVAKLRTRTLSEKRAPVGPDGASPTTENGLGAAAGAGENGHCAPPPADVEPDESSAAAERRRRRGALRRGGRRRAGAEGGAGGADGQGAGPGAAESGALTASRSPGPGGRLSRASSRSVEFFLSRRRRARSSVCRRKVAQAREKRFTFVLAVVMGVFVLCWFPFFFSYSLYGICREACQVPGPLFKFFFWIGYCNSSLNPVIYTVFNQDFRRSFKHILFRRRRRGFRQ
Chain of Human serotonin 5-HT2A (P28223 whole entry): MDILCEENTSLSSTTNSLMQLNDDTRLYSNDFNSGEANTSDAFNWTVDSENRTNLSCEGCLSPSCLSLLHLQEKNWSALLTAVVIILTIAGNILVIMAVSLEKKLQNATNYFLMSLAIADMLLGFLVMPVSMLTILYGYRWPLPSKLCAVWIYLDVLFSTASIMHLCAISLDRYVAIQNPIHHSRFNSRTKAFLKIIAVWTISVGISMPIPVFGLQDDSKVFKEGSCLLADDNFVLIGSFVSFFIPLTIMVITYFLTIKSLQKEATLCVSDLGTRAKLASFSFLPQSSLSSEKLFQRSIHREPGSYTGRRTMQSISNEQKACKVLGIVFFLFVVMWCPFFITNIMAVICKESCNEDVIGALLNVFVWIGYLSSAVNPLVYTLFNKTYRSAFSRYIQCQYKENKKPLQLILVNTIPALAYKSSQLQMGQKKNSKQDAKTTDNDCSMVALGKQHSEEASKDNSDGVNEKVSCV
Chain of Human opiate μ (P35372 whole entry): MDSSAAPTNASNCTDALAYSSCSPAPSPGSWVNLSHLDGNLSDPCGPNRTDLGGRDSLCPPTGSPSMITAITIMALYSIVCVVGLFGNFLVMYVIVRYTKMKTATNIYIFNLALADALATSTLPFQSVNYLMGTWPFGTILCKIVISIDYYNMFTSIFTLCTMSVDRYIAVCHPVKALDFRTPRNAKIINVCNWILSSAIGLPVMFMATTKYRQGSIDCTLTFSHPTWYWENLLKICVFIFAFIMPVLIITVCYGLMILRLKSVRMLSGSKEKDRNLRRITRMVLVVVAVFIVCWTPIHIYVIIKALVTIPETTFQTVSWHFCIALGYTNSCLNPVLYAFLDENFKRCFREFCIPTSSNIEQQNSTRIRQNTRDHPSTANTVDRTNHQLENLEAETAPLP

CC(C)NCC(O)COc1cccc2[nH]ccc12 (stereo not shown) [Pindolol, pindolol]
Emax (human 5-HT1A receptor): 13.3 ± 3.8%

COCCOc1cc(CC2CCN(CCc3ccc4c(c3)C(=O)CCO4)CC2)ccc1Br.O=S(=O)(O)c1ccccc1 [DSP-1053, 6-(2-{4-[4-Bromo-3-(2-methoxyethoxy)benzyl]piperidin-1-yl}ethyl)-2,3-dihydro-4H-chromen-4-one benzenesulfonate]
Ki [1]: 0.489 ± 0.039 nM
Ki (Human adrenergic α1A): 528 ± 45 nM
inhibition at 1 µM (Human adrenergic α1A; [16]): 57%
inhibition at 1 µM (Human adrenergic α1B): 1%
inhibition at 1 µM (Human adrenergic α2A): 26%
inhibition at 1 µM (Human adrenergic α2B): 6%
inhibition at 1 µM (Human adrenergic α2C): 41%
inhibition at 1 µM (Human adrenergic β1): 14%
inhibition at 1 µM (Human adrenergic β2): 22%
inhibition at 1 µM (Human adrenergic β3): 19%
inhibition at 1 µM (Human dopamine D1): 4%
inhibition at 1 µM (Human dopamine D2L): 35%
Ki (Human dopamine D3): 249 ± 21 nM
inhibition at 1 µM (Human dopamine D3; [16]): 65%
Percentage inhibition at 1 μmol/L (Rat GABAA): 8%
Ki (Human histamine H1): 7.46 ± 0.2 nM
inhibition at 1 µM (Human histamine H1; [16]): 93%
inhibition at 1 µM (Human histamine H2): 37%
inhibition at 1 µM (Human musucarinic M1): 9%
inhibition at 1 µM (Human musucarinic M2): 21%
inhibition at 1 µM (Human opiate δ): 10%
inhibition at 1 µM (Human opiate κ): 0%
inhibition at 1 µM (Human opiate μ): 2%
inhibition at 1 µM [2]: 26%
inhibition at 1 µM (Human serotonin 5-HT1B): 47%
inhibition at 1 µM (Human serotonin 5-HT2A): 35%
Ki (Human serotonin 5-HT2B): 117 ± 28 nM
inhibition at 1 µM (Human serotonin 5-HT2B; [16]): 79%
inhibition at 1 µM (Human serotonin 5-HT2C): 20%
inhibition at 1 µM (Human serotonin 5-HT3): 0%
inhibition at 1 µM (Human serotonin 5-HT5A): 2%
inhibition at 1 µM (Human serotonin 5-HT6): 14%
Ki (Human serotonin 5-HT7): 288 ± 35 nM
inhibition at 1 µM (Human serotonin 5-HT7; [16]): 73%
inhibition at 1 µM [3]: 0%
inhibition at 1 µM [4]: 5.28%
inhibition at 1 µM [5]: 0.19%
clearance ([6]; iv, 1 mg/kg): 57.6 mL/min/kg
Tmax ([6]; po, 10 mg/kg): ≤ 1 h
maximum increase of 5-HT extracellular levels, % of baseline value ([7]; 3 mg kg^−1 p.o.): 180 ± 25.9%
maximum increase of 5-HT extracellular levels, % of baseline value ([7]; 10 mg kg^−1 p.o.): 264 ± 58.0%
extracellular 5-HT levels ([7]; given once at 3 and 10 mg kg^−1): dose-dependently increased
dopamine extracellular levels in the rat frontal cortex [8]: did not affect
immobility time (rats [9]; 2-week consecutive administration, 1 mg kg^−1 p.o.): significantly decreased
immobility time (rats [9]; 2-week consecutive administration, 1 mg kg^−1 p.o., listed as DSR-1053): significantly reduced
emotional scores [10, 17]: reduced; also recorded: significant decrease
emotional scores [10, 18]: no effect
number of line crosses [11, 17]: reduced; also recorded: significant decrease
number of line crosses [11, 18]: no effect
Number of animals vomited/tested (Suncus murinus [12]; 10 mg kg^−1 po): 0 and 0/6
Number of animals vomited/tested (Suncus murinus [12]; 30 mg kg^−1 po): 1 and 1/6
Total emetic episode (Suncus murinus [12]; 30 mg kg^−1 po): 2
Number of animals vomited/tested (Suncus murinus [12]; 60 mg kg^−1 po): 3 and 3/6
Total emetic episode (Suncus murinus [12]; 60 mg kg^−1 po, mean ± SEM): 5.3 ± 1.0
number of animals that showed emesis on the first day, of 19 animals (Suncus murinus [13]): 9
saccharin consumption (rats [14]): significantly inhibited

Fc1ccc([C@@H]2CCNC[C@H]2COc2ccc3c(c2)OCO3)cc1 [Paroxetine, paroxetine hydrochloride, reference compound]
immobility time (rats [9]; 2-week administration): no effect
immobility time (rats [9]; 3-week administration, 3 and 10 mg kg^−1 p.o.): reduced immobility time
emotional scores [10, 19]: did not alter
emotional scores ([10]; olfactory bulbectomized animals, 3 and 10 mg/kg, 2-week administration): significant decrease
emotional scores [10, 20]: no effect
number of line crosses [11, 19]: did not alter
number of line crosses ([11]; olfactory bulbectomized animals, 10 mg/kg, 2-week administration): significant decrease
number of line crosses [11, 20]: no effect
number of animals that showed emesis on the first day, of 19 animals (Suncus murinus [13]): 12
Number of animals vomited/tested (Suncus murinus [15]; 10 mg kg^−1 po): 0/6
Number of animals vomited/tested (Suncus murinus [15]; 10 mg kg^−1 po, listed as paroxetine): 0
Number of animals vomited/tested (Suncus murinus [15]; 30 mg kg^−1 po): 2/6
Number of animals vomited/tested (Suncus murinus [15]; 30 mg kg^−1 po, listed as paroxetine): 2
Total emetic episode (Suncus murinus [15]; 30 mg kg^−1 po, 1 h observation, animals that vomited): 6.8
Number of animals vomited/tested (Suncus murinus [15]; 60 mg kg^−1 po): 6/6 ^*
Number of animals vomited/tested (Suncus murinus [15]; 60 mg kg^−1 po, listed as paroxetine): 6
